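The compound was tested at five concentrations on cells cultured in 96-well plates, with a 48-hour exposure period. Definition used: TGI = concentration required for complete inhibition of growth.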
Key:
Test in all cases: inhibition of tumour cell growth, NCI panel, 48 h
[1] = test system: M14 melanoma
[2] = test system: SR leukemia
[3] = test system: EKVX NSCLC
[4] = test system: OVCAR-5 ovarian
[5] = test system: M19-MEL melanoma
[6] = test system: SK-OV-3 ovarian
[7] = test system: NCI-H23 lung
[8] = test system: U251 CNS
[9] = test system: NCI-H522 lung
[10] = test system: TK-10 renal
[11] = test system: ACHN renal
[12] = test system: SK-MEL-28 melanoma
[13] = test system: HL-60(TB) leukemia
[14] = test system: DMS 273 small cell lung
[15] = test system: DMS 114 small cell lung
[16] = test system: CCRF-CEM leukemia
[17] = test system: HOP-62 NSCLC
[18] = test system: KM20L2 colon
[19] = test system: RXF-631 renal
[20] = test system: UO-31 renal
[21] = test system: OVCAR-8 ovarian
[22] = test system: NCI-H460 lung
[23] = test system: A498 renal
[24] = test system: SNB-78 CNS
[25] = test system: HCT-116 colon
[26] = test system: KM12 colon
[27] = test system: HOP-92 NSCLC
[28] = test system: A549 NSCLC
[29] = test system: MOLT-4 leukemia
[30] = test system: RXF 393 renal
[31] = test system: SF-295 CNS
[32] = test system: UACC-62 melanoma
[33] = test system: HT29 colon
[34] = test system: SNB-19 CNS
[35] = test system: IGROV1 ovarian
[36] = test system: UACC-257 melanoma

With COc1ccccc1-c1csc(CCC(N)C(=O)O)n1 (stereo unspecified) the TGI [1] was > 100 µM, the TGI [2] was > 100 µM and the TGI [3] was > 100 µM. The TGI [4] was > 100 µM, the TGI [5] was > 100 µM and the TGI [6] was > 100 µM. The TGI [7] was > 100 µM, the TGI [8] was > 100 µM and the TGI [9] was > 100 µM. For the same molecule, the TGI [10] was 75.4 µM, the TGI [11] was > 100 µM and the TGI [12] was > 100 µM. The TGI [13] was > 100 µM, the TGI [14] was > 100 µM and the TGI [15] was > 100 µM. The TGI [16] was > 100 µM, the TGI [17] was > 100 µM and the TGI [18] was > 100 µM. The TGI [19] was > 100 µM, the TGI [20] was > 100 µM and the TGI [21] was > 100 µM. For the same molecule, the TGI [22] was > 100 µM, the TGI [23] was > 100 µM and the TGI [24] was > 100 µM. For the same molecule, the TGI [25] was > 100 µM, the TGI [26] was > 100 µM and the TGI [27] was > 100 µM. The TGI [28] was > 100 µM, the TGI [29] was > 100 µM and the TGI [30] was > 100 µM. The TGI [31] was > 100 µM, the TGI [32] was > 100 µM and the TGI [33] was > 100 µM. The TGI [34] was > 100 µM, the TGI [35] was > 100 µM and the TGI [36] was > 100 µM.
